Reference: US20110070190A1 (Roche Palo Alto LLC, priority 2009, published 2011)

Key:
[1] = tested on: HCV replicon cells (2209-23), genotype 1b replicon in human hepatoma Huh7 cells; test: HCV replicon assay (Renilla luciferase reporter); type: cell-based, HCV genotype 1b; conditions: Hepatitis C virus, Huh-7, 72 h; 2209-23 cells, three days incubation
[2] = target: T1, HCV polymerase (NS5B570n-Con1) (Hepatitis C virus genotype 1b, UniProt Q9WMX2); test: HCV NS5B RNA polymerase activity (incorporation of radiolabeled nucleotide into acid insoluble RNA); type: biochemical, HCV Con1 strain
T1 construct: a 21 amino acid C-terminal deletion of full-length HCV polymerase; made in house; host or cells: E. coli BL21(DE3) pLysS, plasmid pET17b
Experimental: The enzymatic activity of HCV polymerase (NS5B570n-Con1) was measured as the incorporation of radiolabeled nucleotide monophosphates into acid insoluble RNA products. Unincorporated radiolabeled substrate was removed by filtration and scintillant was added to the washed and dried filter plate containing radiolabeled RNA product. The amount of RNA product generated by NS5B570n-Con1 at the end of the reaction was directly proportional to the amount of light emitted by the scintillant.
The HCV polymerase used in the enzymatic activity assay is a 21 amino acid C-terminal deletion of full-length HCV polymerase derived from HCV Con1 strain, genotype 1b (GenBank accession number AJ242654) (NS5B570n-Con1). The NS5B570n-Con1 was sub-cloned downstream to the T7 promoter of the plasmid expression construct pET17b and transformed into E. coli strain BL21(DE3) pLysS for protein expression. A single colony was used to start an innoculum for a 10 L culture in LB media supplemented with 100 μg/mL ampicillin at 37° C. Protein expression was induced by the addition of 0.25 mM isopropyl-β-D-thiogalactopyranoside (IPTG) when the optical density of the culture at […] was 0.8. Induction of protein expression was carried out at 30° C. for 16 h after which the cells were harvested by centrifugation. NS5B570n-Con1 was purified to homogeneity using a three-column purification protocol including subsequent column chromatography on Ni-NTA, SP-Sepharose HP and Superdex 75 resins.
Enzymatic reactions in the presence of cIRES RNA template (see paragraph [00213]) contained 20 nM cIRES RNA, 20 nM NS5B570n-Con1 enzyme, 0.5 μCi of tritiated UTP (Perkin Elmer catalog no. TRK-412; specific activity: 30 to 60 Ci/mmol;), 1 μM each ATP, CTP, and GTP, 40 mM Tris-HCl pH 8.0, 40 mM NaCl, 4 mM DTT (dithiothreitol), 4 mM MgCl2, 5 μl of compound serial diluted in DMSO, and nuclease-free water to a final reaction volume of 50 μl. Enzymatic reactions in the presence of poly A RNA template (see paragraph [00213]) contained 20 nM Poly A:oligo(rU)16 premixed (see section 0004), 20 nM NS5B570n-Con1 enzyme, 1 μCi of tritiated UTP (Perkin Elmer catalog no. TRK-412; specific activity: 30 to 60 Ci/mmol), 40 mM Tris-HCl pH 8.0, 40 mM NaCl, 4 mM DTT (dithiothreitol), 4 mM MgCl2, 5 μl of compound serial diluted in DMSO, and nuclease-free water to a final reaction volume of 50 μl. Reaction mixtures were assembled in 96-well filter plates (cat #MADVN0B, Millipore Co.) and incubated for 2 h at 30° C. Reactions were stopped by addition of 10% final (v/v) trichloroacetic acid and incubated for 40 min at 4° C. Reactions were filtered, washed with 8 reaction volumes of 10% (v/v) trichloroacetic acetic acid, 4 reaction volumes of 70% (v/v) ethanol, air dried, and 25 μl of scintillant (Microscint 20, Perkin-Elmer) was added to each reaction well.
Two RNA templates were used to assay compounds described herein. The cIRES RNA template was 377 nucleotide long and consisted of a partial complementary sequence (36 nucleotides) of the core protein, followed by 341 nucleotide of the complementary sequence of the internal ribosome entry site. The poly A RNA template (GE Amersham catalog number 27-4110) was a homopolymeric RNA pre-annealed to a oligo(rU)16 primer at a molar ratio of 3-to-1 (primer-template).
The amount of light emitted from the scintillant was converted to counts per minute (CPM) on a Topcount® plate reader (Perkin-Elmer, Energy Range: Low, Efficiency Mode: Normal, Count Time: 1 min, Background Subtract: none, Cross talk reduction: Off).
Data was analyzed in Excel® (Microsoft®) and ActivityBase® (Idbs®). The reaction in the absence of enzyme was used to determine the background signal, which was subtracted from the enzymatic reactions. Positive control reactions were performed in the absence of compound, from which the background corrected activity was set as 100% polymerase activity. All data was expressed as a percentage of the positive control. […]

| Compound | IC50 [1] | IC50 [2] |
| --- | --- | --- |
| Cc1cc(N)n2nc(-c3ccc(-c4cc5c(s4)c(=O)ncn5Cc4ccc(Cl)cc4)cc3Cl)cc2n1 [Compound I-2, 6-[4-(7-Amino-5-methyl-pyrazolo[1,5-a]pyrimidin-2-yl)-3-chloro-phenyl]-1-(4-chloro-benzyl)-1H-thieno[3,2-d]pyrimidin-4-one] | 4.1 nM | 4 nM |
| Cc1ccc(Cn2cnc(=O)c3sc(-c4ccc(-c5cc6nc(C)cc(N)n6n5)cc4)cc32)cc1 [Compound I-38, 6-[4-(7-Amino-5-methyl-pyrazolo[1,5-a]pyrimidin-2-yl)-phenyl]-1-(4-methyl-benzyl)-1H-thieno[3,2-d]pyrimidin-4-one] | 47.2 nM | 210 nM |
